Where a name gives a salt, the structure may show the parent alone.

Assay type in all cases: functional, cell-based
The nature of assay [1]: Growth inhibition of human Saos2 cells by MTT method. As to conditions: SAOS-2. A general note: Tetrazolium assays rely on reduction of a dye to a coloured formazan, in cell work by metabolically active cells.
In assay [2] the test system is B16. Put plainly: Growth inhibition of mouse B16 cells by MTT method.
Assay [3] in a line: Growth inhibition of human MG63 cells by MTT method. To be noted: MG-63.

For `CC[C@H](C)[C@H]1O[C@@]2(CCC[C@@H](C/C=C(\C)[C@@H](O)[C@@H](C)/C=C/C=C(\C)c3cc(O)c(C)cc3C(=O)O)O2)C[C@H](O)[C@@H]1C`, the figures for the IC50 in assay [1], in assay [2] and in assay [3] were 1.9 µM, 14.7 µM and 5.1 µM, respectively.
On to `CC[C@H](C)[C@H]1O[C@@]2(CCC[C@@H](C/C=C(\C)[C@@H](O[C@H]3C[C@H](OC)[C@@H](O)[C@H](C)O3)[C@@H](C)/C=C/C=C(\C)c3cc(O)c(C)cc3C(=O)O)O2)C[C@H](O)[C@@H]1C`, for which the IC50 in assay [1] amounted to 0.7 µM; in assay [2] it was 40.6 µM; in assay [3], 1.7 µM.
For `CC[C@H](C)[C@H]1O[C@@]2(C=CC[C@@H](C/C=C(\C)[C@@H](O)[C@@H](C)/C=C/C=C(\C)c3cc(O)c(C)cc3C(=O)O)O2)C=C[C@@H]1C`, the IC50 in assay [1] was found to be 2.5 µM; in assay [2], 35.1 µM; in assay [3], 6.9 µM.
Taken in the same sequence, the figures for `CC[C@H](C)[C@H]1O[C@]2(C=C[C@@H]1C)C[C@@H]1C[C@@H](C/C=C(\C)[C@@H](O[C@H]3C[C@H](OC)[C@@H](O[C@H]4C[C@H](OC)[C@@H](O)[C@H](C)O4)[C@H](C)O3)[C@@H](C)/C=C/C=C3\CO[C@@H]4[C@H](O)C(C)=C[C@@H](C(=O)O1)[C@]34O)O2` [ABAMECTIN COMPONENT B1A] were 14.7 µM, 20.5 µM and 8.6 µM.
The matching figures for `COc1cccc2c1C(=O)c1c(O)c3c(c(O)c1C2=O)C[C@@](O)(C(=O)CO)C[C@@H]3O[C@H]1C[C@H](N)[C@H](O)[C@H](C)O1` [DOXORUBICIN HYDROCHLORIDE]: 4.2 µM, 6.4 µM and 5.2 µM.

One may read the IC50 as the point on the concentration scale where inhibition reaches its midpoint. High values mean lower potency, low ones higher potency.

Source of the values: ChEMBL document CHEMBL3421586, “1,19-seco-Avermectin analogues from a ΔaveCDE mutant Streptomyces avermectinius strain” (J Nat Prod, 2015).
